Experimental data: patent publication US11091806B2, “Genetic markers associated with response to CRTH2 receptor antagonists” (Merck Sharp & Dohme Corp., priority 2015, dated 2021)

Key:
[1] = tested on: asthmatic subjects with persistent symptoms; test: 17-week randomized, double-blind, placebo-controlled, crossover study of FEV1 in asthmatic subjects receiving montelukast, with pharmacogenetic subgroup analysis; assay type: in vivo, human; details: for Estimated mean treatment difference in FEV1 at Week 4 using the new method of analysis, LSMean: Compound A + montelukast vs placebo + montelukast, xdiff=0
Text: FIG. 2 is graphical depiction of the study design. The study was a 17-week randomized, double-blind, placebo-controlled, crossover study with in-house blinding to evaluate the effect of {(7R)-4-fluoro-7-[5-(4-fluorobenzyl)-1H-[1,2,3]triazol-1-yl]-6,7,8,9-tetrahydropyrido[1,2-a]indol-10-yl}-acetic acid (hereinafter “Compound A”) on FEV1 when dosed for 4 weeks in asthmatic subjects with persistent symptoms while receiving montelukast (ML). Overall, 104 patients completed the study. Period I was a pre-study period. Subjects receiving long acting beta-agonists (LABAs) with inhaled corticosteroid (ICS), either separately or as part of a fixed-dose combination, were asked to discontinue the LABA component while still receiving ICS. Period II was a 2- to 4-week run-in period during which subjects receive open-label montelukast (ML) and single-blind placebo (PBO). Subjects receiving ICS or other controllers were required to taper off these medications while receiving montelukast; Period III was a 4-week, double-blind, randomized treatment period during which subjects received either Compound A 150 mg or matching-image placebo while continuing to receive montelukast 10 mg QD; Period IV was a 4-week wash out period during which subjects receive placebo in a single-blind fashion while continuing to receive montelukast 10 mg QD; Period V was a 4-week double-blind period during which subjects were crossed over to the opposite treatment not received during Period III.
The primary efficacy endpoint of the study was forced expiratory volume in 1 second (FEV1) after 4 weeks of dosing, and the study had 85% power to detect a true overall mean treatment difference of 110 mL.
A common analysis for crossover designs with longitudinal measurements in each period uses a linear mixed effects “cell means” model with the clinical measure (here, FEV1) as the dependent variable, and sequence (S=M→P, P→M), treatment (T=M,P), visit (V=0, 2, 4 weeks), and all possible interactions involving S, T, and V as independent variables; M=Compound A+montelukast, P=placebo+montelukast. In addition, to minimize assumptions, a covariance matrix without imposition of any structure (such as compound symmetry) is used to account for the intra-patient correlations among FEV1 responses over time and across the two treatments within each sequence.
This common analysis can be misleading if both of the following conditions are encountered in either crossover sequence: (i) the observed mean difference in baseline means for the two treatments is “far” from zero, and (ii) baseline and post-baseline responses are very strongly correlated (correlation 0.9 or higher). […] Consequently, we analyzed the FEV1 data using an extension of the method of analysis described in Mehrotra D V, Pharmaceutical Statistics 13, 376-387 (2014). This second analytical method is specifically designed for crossover analyses with baseline measurements. To do so, we added “xdiff” (baseline difference between treatments M and P) and interactions between xdiff and all the other fixed effect terms involving S, T, and V to the aforementioned common analysis crossover model; the mean treatment difference at week 4 was estimated at xdiff=0 via the SAS code below.
In the SAS code above, patients with a missing xdiff value are automatically removed from the analysis. To generate results in which all 103 patients are retained in the analysis, missing period 2 baseline FEV1 values (resulting in missing xdiff values, which was the case for ˜20% of the patients due to dropout) were imputed separately in each sequence via a simple linear regression model with the period 2 baseline as the dependent variable and the corresponding period 1 baseline as the independent variable. As noted earlier, the observed correlation between period 1 and period 2 FEV1 baselines was 0.9 in both sequences, providing reassurance that the imputed values for missing period 2 baselines had good reliability. […]

allergic rhinitis = details: in vivo; cited from earlier work
[2] = tested on: patient population afflicted with eosinophilic severe asthma; details: patients with eosinophilic severe asthma; Phase IIa; cited from earlier work

Structure (SMILES): O=C(O)Cc1c2n(c3c(F)cccc13)C[C@H](n1nncc1Cc1ccc(F)cc1)CC2 [Compound A, {(7R)-4-fluoro-7-[5-(4-fluorobenzyl)-1H-[1,2,3]triazol-1-yl]-6,7,8,9-tetrahydropyrido[1,2-a]indol-10-yl}-acetic acid]
- FEV1: Estimated Mean Treatment Difference at Week 4 by Genotype Subgroup for rs12748961, LSMean ([1]; C = 0 (N = 74), no copies of the C allele): 59 mL
- FEV1: Estimated Mean Treatment Difference at Week 4 by Genotype Subgroup for rs12748961, LSMean ([1]; C ≥1 (N = 29), one or two copies of the C allele): 268 mL
- Estimated mean treatment difference in FEV1 at Week 4 using the new method of analysis, LSMean ([1]; missing period 2 FEV1 baselines imputed: No (N = 85)): 120 mL
- Estimated mean treatment difference in FEV1 at Week 4 using the new method of analysis, LSMean ([1]; missing period 2 FEV1 baselines imputed: Yes (N = 103)): 122 mL
- Effectiveness in improving FEV1 levels relative to placebo ([1]; after four weeks of treatment in patients who continue to take montelukast as background therapy): notably more effective
- Estimated benefit (FEV1) in patients without the C allele of rs12748961 ([1]; remaining 70% of the patients (C = 0)): relatively small

Structure (SMILES): O=C(O)CCn1c2c(c3ccccc31)C[C@H](NS(=O)(=O)c1ccc(F)cc1)CC2 [Ramatroban, 3-((3R)-3-{[(4-fluorophenyl)sulfonyl]amino}-1,2,3,4-tetrahydro-9H-carbazol-9-yl)propanoic acid]
- Efficacy in allergic rhinitis (allergic rhinitis): some degree of efficacy

Structure (SMILES): Cc1c(CC(=O)O)c2cccnc2n1Cc1ccc(S(C)(=O)=O)cc1C(F)(F)F [fevipiprant, 2-(2-methyl-1-(4-(methylsulfonyl)-2-(trifluoromethyl)benzyl)-1H-pyrrolo[2,3-b]pyridin-3-yl)acetic acid]
- Sputum eosinophils [2]: reduction of sputum eosinophils
